≈ marks a conversion by molar mass, not a printed value.
Test system: CCRF-CEM cells
Assay: growth inhibition / cytotoxicity against CCRF-CEM human leukemia cells in vitro
Type: cell-based
Conditions: serum-free UltraCHO media, 72 hours incubation, read-out: IC50 (concentration required for 50% inhibition of growth), CCRF-CEM
Method: The in vitro data were obtained using CCRF-CEM cells, a human leukemia cell line. Foley et al., Cancer, 18:522 (1965). These cells were grown in albumin-free UltraCHO® media (BioWhittaker, Inc., Walkersville, Md.) using standard techniques. See, e.g., G. B. Grindey, et al., Journal of Molecular Pharmacology, 16:601 (1979). Dose-response curves were generated for various compounds to determine the concentration required for 50% inhibition of growth (IC50). Cluster plates were prepared in duplicate with the compound at various concentrations. Test compounds were dissolved initially in DMSO at a concentration of 4 mg/ml and further diluted with solvent to the desired concentration. Cells in serum-free UltraCHO media were added to the well at a final concentration of 4.8×10^4 cells/well in a total volume of 2.0 ml. After 72 hours of incubation (95% air, 5% CO2), cell numbers were determined on a ZBI Coulter counter. Cell number for indicated controls at the end of incubation was usually (4-6)×10^5 cells/well. Cell viability was also measured by staining with 3-[4,5-dimethylthiazol-2-yl]-2,5-diphenyl-tetrazolium bromide (MTT) using standard techniques. R. I. Freshney, Culture of Animal Cells: A Manual of Basic Technique, 253-254 (2d ed. 1987).
Column 1 refers to the example number of the compound tested; Column 2 depicts the in vitro cytoxicity against CCRF-CEM cells by relating the concentration of the test compound required for 50% inhibition of growth (IC50) of the cells in the well. The designation "CSQ" refers to the compound 4-amino-N-(5-chloro-2-quinoxalinyl)benzenesulfonamide and is used as a comparator.

Structure (SMILES)	IC50
Nc1ccc(S(=O)(=O)Nc2cnc3c(Cl)cccc3n2)cc1 [CSQ, 4-amino-N-(5-chloro-2-quinoxalinyl)benzenesulfonamide, reference compound]	0.8 µg/mL (≈ 2.39 µM)
CN(C)c1ccc(S(=O)(=O)Nc2cnc3cc(Cl)c(Cl)cc3n2)cc1 [Example 1, 4-N',N'-dimethylamino-N-(6,7-dichloro-2-quinoxalinyl)benzenesulfonamide]	0.8 µg/mL (≈ 2.01 µM)
CN(C)c1ccc(S(=O)(=O)Nc2cnc3c(Cl)cccc3n2)cc1 [Example 2, 4-N',N'-dimethylamino-N-(5-chloro-2-quinoxalinyl)benzenesulfonamide]	0.1 µg/mL (≈ 0.276 µM)
CN1CCc2cc(S(=O)(=O)Nc3cnc4c(Cl)cccc4n3)ccc21 [Example 3, N-(5-chloro-2-quinoxalinyl)-2,3-dihydro-1-methyl-1H-indole-5-sulfonamide]	0.3 µg/mL (≈ 0.8 µM)
O=S(=O)(Nc1cnc2c(Cl)cccc2n1)c1ccc2c(c1)CCO2 [Example 4, N-(5-chloro-2-quinoxalinyl)-2,3-dihydrobenzofuran-5-sulfonamide]	0.3 µg/mL (≈ 0.829 µM)
O=S(=O)(Nc1cnc2c(Cl)cccc2n1)c1ccc2occc2c1 [Example 5, N-(5-chloro-2-quinoxalinyl)benzofuran-5-sulfonamide]	0.2 µg/mL (≈ 0.556 µM)
Cn1ccc2cc(S(=O)(=O)Nc3cnc4c(Cl)cccc4n3)ccc21 [Example 6, N-(5-chloro-2-quinoxalinyl)-1-methyl-1H-indole-5-sulfonamide]	0.4 µg/mL (≈ 1.07 µM)
CN(C)c1ccc(S(=O)(=O)Nc2cnc3cc(Cl)ccc3n2)cc1 [Example 7, 4-N',N'-dimethylamino-N-(6-chloro-2-quinoxalinyl)benzenesulfonamide]	1.2 µg/mL (≈ 3.31 µM)
CN1CCc2cc(S(=O)(=O)Nc3cnc4cc(Cl)ccc4n3)ccc21 [Example 8, N-(6-chloro-2-quinoxalinyl)-2,3-dihydro-1-methyl-1H-indole-5-sulfonamide]	1.5 µg/mL (≈ 4 µM)
CN(C)c1ccc(S(=O)(=O)Nc2cnc3ccc(Cl)cc3n2)cc1 [Example 9, 4-(N',N'-dimethylamino)-N-(7-chloro-2-quinoxalinyl)benzenesulfonamide]	10.4 µg/mL (≈ 28.7 µM)
CN1CCc2cc(S(=O)(=O)Nc3cnc4ccc(Cl)cc4n3)ccc21 [Example 10, N-(7-chloro-2-quinoxalinyl)-2,3-dihydro-1-methyl-1H-indole-5-sulfonamide]	10.8 µg/mL (≈ 28.8 µM)
CN(C)c1ccc(S(=O)(=O)Nc2cnc3cccc(Cl)c3n2)cc1 [Example 11, 4-N',N'-dimethylamino-N-(8-chloro-2-quinoxalinyl)benzenesulfonamide]	15.1 µg/mL (≈ 41.6 µM)
CN(C)c1ccc(S(=O)(=O)Nc2cnc3c(Cl)c(Cl)ccc3n2)cc1 [Example 12, 4-N',N'-dimethylamino-N-(5,6-dichloro-2-quinoxalinyl)benzenesulfonamide]	7.2 µg/mL (≈ 18.1 µM)
O=S(=O)(Nc1cnc2c(Cl)c(Cl)ccc2n1)c1ccc2c(c1)CCO2 [Example 13, N-(5,6-dichloro-2-quinoxalinyl)-2,3-dihydrobenzofuran-5-sulfonamide]	6 µg/mL (≈ 15.1 µM)
CN(C)c1ccc(S(=O)(=O)Nc2cnc3ccc(Cl)c(Cl)c3n2)cc1 [Example 14, 4-N',N'-dimethylamino-N-(7,8-dichloro-2-quinoxalinyl)benzenesulfonamide]	4.6 µg/mL (≈ 11.6 µM)
O=S(=O)(Nc1cnc2ccc(Cl)c(Cl)c2n1)c1ccc2c(c1)CCO2 [Example 15, N-(7,8-dichloro-2-quinoxalinyl)-2,3-dihydrobenzofuran-5-sulfonamide]	10.8 µg/mL (≈ 27.3 µM)

Source: patent US5529999A, “Antitumor compositions and methods of treatment” (Eli Lilly and Company, priority 1994, dated 1996)
